Measurements from PubChem BioAssay (NCI).
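Cultured in 96-well plates, cells were exposed to test compound for 48 hours across five concentrations. The concentration for 50% growth inhibition is given as GI50. TGI: total growth inhibition.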

How the values were obtained:
Assay in all cases: growth of human tumour cells (NCI), 48 h
TK-10 renal = tested on: TK-10 renal
UACC-62 melanoma = tested on: UACC-62 melanoma
HOP-62 NSCLC = tested on: HOP-62 NSCLC
HOP-92 NSCLC = tested on: HOP-92 NSCLC
OVCAR-4 ovarian = tested on: OVCAR-4 ovarian
ACHN renal = tested on: ACHN renal
SW-620 colon = tested on: SW-620 colon
SR leukemia = tested on: SR leukemia
CCRF-CEM leukemia = tested on: CCRF-CEM leukemia
HT29 colon = tested on: HT29 colon

Row | SMILES | TGI (TK-10 renal) | TGI (UACC-62 melanoma) | GI50 (HOP-62 NSCLC) | TGI (HOP-62 NSCLC) | TGI (HOP-92 NSCLC) | GI50 (OVCAR-4 ovarian) | TGI (OVCAR-4 ovarian) | GI50 (ACHN renal) | TGI (ACHN renal) | TGI (SW-620 colon) | TGI (SR leukemia) | GI50 (CCRF-CEM leukemia) | TGI (CCRF-CEM leukemia) | TGI (HT29 colon) | GI50 (TK-10 renal) | GI50 (UACC-62 melanoma) | GI50 (HOP-92 NSCLC) | GI50 (SW-620 colon) | GI50 (SR leukemia) | GI50 (HT29 colon)
1 | CN(NC(=O)CC(=O)NN(C)C(=S)c1ccccc1)C(=S)c1ccccc1 | > 100 µM | > 100 µM | > 69.2 µM | > 100 µM | > 100 µM | > 71.2 µM | > 100 µM | 73.9 µM | > 100 µM | > 100 µM | > 100 µM | 64.7 µM | > 100 µM | > 100 µM |  |  |  |  |  | 
2 | Cc1cc(C)c(O)c(CNCCCCCCNCc2cc(C)cc(C)c2O)c1 | 2.92 µM | 3.41 µM | 1.77 µM | 3.6 µM | 4.01 µM | 1.51 µM | 3.75 µM | 1.91 µM | 3.69 µM | 3.56 µM | 3.84 µM | 2.19 µM | 5.72 µM | 3.82 µM | 1.39 µM | 1.82 µM | 1.25 µM | 1.81 µM | 1.34 µM | 1.73 µM
3 | COc1ccc2c([nH]c3cc(O)c(C)cc32)c1C=O | > 25 µM | > 25 µM |  | > 25 µM | > 25 µM |  | > 25 µM |  | > 25 µM | > 25 µM | > 25 µM |  | > 25 µM | > 25 µM |  |  |  |  |  | 
4 | CC1(C)NCCC[C@]2(C)[C@H]3C=CC4=C5C[C@](C)(CO)CC[C@]5(C)CC[C@@]4(C)[C@]3(C)CC[C@@H]12 | 7.15 µM | 10.9 µM | 2.3 µM | 5.16 µM | 14.6 µM | 5.63 µM | 20.8 µM | 2.93 µM | 9.56 µM | 18.8 µM | 7.17 µM | 3.52 µM | 14.6 µM | 13.8 µM | 2.66 µM | 3.13 µM | 3.1 µM | 5.76 µM | 2.42 µM | 3.25 µM
5 | C=C1C[C@@H]2C/C=C/C(=O)C/C(C)=C\C=C\C(=O)O[C@H](C=O)C/C(C)=C/[C@H](C1)O2 | 18 µM | 14 µM | 1.75 µM | 17.3 µM | 2.34 µM | 4.65 µM | 70 µM | 6.64 µM | 21.8 µM | 15.7 µM | 6.77 µM | 0.315 µM | 0.956 µM | 12.6 µM | 3.62 µM | 0.818 µM | 0.367 µM | 0.449 µM | 1.18 µM | 0.281 µM
6 | S=c1nc(Oc2ccc(Cl)c(Cl)c2)[nH]c(=S)[nH]1 | > 100 µM | > 60.3 µM |  | > 67.6 µM | 60.9 µM |  | > 82.2 µM |  | > 82.2 µM | > 100 µM | > 100 µM |  | > 87.5 µM | > 89.7 µM |  |  |  |  |  | 
7 | CC1(C)COCN1COC1CCCCC1 | > 100 µM | > 100 µM |  | > 100 µM | > 100 µM |  | > 100 µM |  | > 100 µM | > 100 µM | 44 µM |  | > 100 µM | > 100 µM |  |  |  |  |  | 
8 | Cc1ncc([N+](=O)[O-])n1CCNS(=O)(=O)CCCn1ccnc1[N+](=O)[O-] | > 100 µM | > 100 µM |  | > 100 µM | > 100 µM |  | > 100 µM |  | > 100 µM | > 100 µM | > 100 µM |  | > 100 µM | > 100 µM |  |  |  |  |  | 
